According to patent US7659394B2 (Pfizer Inc, priority 2004, dated 2010):

What was measured:
[1] = biological target: T1, human norepinephrine transporter (Homo sapiens, UniProt P23975); test: hNET receptor binding ([125I]-RTI-55 radioligand binding); settings: membranes of HEK-293 cells transfected with human norepinephrine transporter, IC50 converted to Ki by Cheng-Prusoff, read-out: hNET (Ki)
T1 construct: host or cells: HEK-293
Description: (§1) The ability of the compounds of this invention to bind to the hNET and serotonin SERT receptor can be determined using conventional radiolig and receptor binding assays. The receptors can be heterologously expressed in cell lines and experiments conducted in membrane preparations from the cell lines using procedures outlined below. IC50 concentrations can be determined by nonlinear regression of concentration-dependent reduction in specific binding. The Cheng-Prussoff equation can be used to convert the IC50 to Ki concentrations.
Cell pastes of HEK-293 cells transfected with the human norepinephrine transporter were supplied by the Pfizer Ann Arbor Protein Expression and Production group. […] Aliquots of membranes (5 mg/ml protein) were stored in liquid nitrogen until used.
(§2) The reaction was incubated by gentle agitation for 90 min at room temperature and was terminated by filtration through Whatman GF/C filter plates using a Brandel 96-well plate harvester. […] Test compounds were run in duplicate, and specific binding was defined as the difference between binding in the presence and absence of 10 μM desipramine.
(§3) Excel and GraphPad Prism software were used for data calculation and analysis. IC50 values were converted to Ki values using the Cheng-Prusoff equation.

[2] = biological target: T2, human seritonin transporter (Homo sapiens, UniProt P31645); test: hSERT receptor binding ([125I]-RTI-55 radioligand binding); settings: membranes of HEK-293 cells transfected with human seritonin transporter, IC50 converted to Ki by Cheng-Prusoff, read-out: SERT (Ki)
T2 construct: host or cells: HEK-293
T2 sequence (P31645 whole entry): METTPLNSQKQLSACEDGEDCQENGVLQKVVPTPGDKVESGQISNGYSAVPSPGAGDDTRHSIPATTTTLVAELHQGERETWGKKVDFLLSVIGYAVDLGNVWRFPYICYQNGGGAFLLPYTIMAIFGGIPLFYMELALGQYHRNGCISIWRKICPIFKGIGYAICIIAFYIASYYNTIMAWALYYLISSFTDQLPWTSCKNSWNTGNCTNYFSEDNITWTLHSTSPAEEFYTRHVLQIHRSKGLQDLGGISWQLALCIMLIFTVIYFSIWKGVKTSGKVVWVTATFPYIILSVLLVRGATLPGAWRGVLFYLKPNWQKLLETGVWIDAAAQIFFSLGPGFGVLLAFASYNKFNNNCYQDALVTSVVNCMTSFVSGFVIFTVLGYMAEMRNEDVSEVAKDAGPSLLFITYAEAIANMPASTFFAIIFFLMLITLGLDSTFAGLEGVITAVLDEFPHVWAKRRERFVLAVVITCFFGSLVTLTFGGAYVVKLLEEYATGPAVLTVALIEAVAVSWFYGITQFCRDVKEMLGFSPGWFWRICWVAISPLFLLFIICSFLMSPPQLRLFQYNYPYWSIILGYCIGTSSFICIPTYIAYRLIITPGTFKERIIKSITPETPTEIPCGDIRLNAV
Description: as §1
Cell pastes of HEK-293 cells transfected with the human seritonin transporter were supplied by the Pfizer Ann Arbor Protein Expression and Production group. […] Aliquots of membranes (5 mg/ml protein) were stored in liquid nitrogen until used.
as §2, with “[…] citalopram.” for “μM desipramine.”
as §3

T1 sequence (P23975 whole entry): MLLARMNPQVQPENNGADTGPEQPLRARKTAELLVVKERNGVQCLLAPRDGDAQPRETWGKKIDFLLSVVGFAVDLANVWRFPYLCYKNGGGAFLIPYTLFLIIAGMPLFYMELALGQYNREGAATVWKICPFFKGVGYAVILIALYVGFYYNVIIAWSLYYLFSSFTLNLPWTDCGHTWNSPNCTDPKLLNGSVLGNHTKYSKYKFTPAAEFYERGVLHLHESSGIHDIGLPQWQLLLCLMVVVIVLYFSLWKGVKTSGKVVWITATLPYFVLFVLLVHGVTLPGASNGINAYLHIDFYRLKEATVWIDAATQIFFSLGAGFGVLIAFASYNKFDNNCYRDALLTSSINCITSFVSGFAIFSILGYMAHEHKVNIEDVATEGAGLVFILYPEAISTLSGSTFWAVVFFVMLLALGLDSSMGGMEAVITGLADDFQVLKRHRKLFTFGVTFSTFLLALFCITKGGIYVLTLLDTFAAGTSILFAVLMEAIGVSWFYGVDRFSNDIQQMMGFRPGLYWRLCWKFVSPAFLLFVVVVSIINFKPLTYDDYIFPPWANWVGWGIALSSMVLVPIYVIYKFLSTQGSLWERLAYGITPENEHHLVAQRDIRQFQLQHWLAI

SMILES: Fc1ccccc1OC(c1cccnc1)[C@@H]1CNCCO1 (mixture of isomers) [Example 23, (S)-2-[(S)-(2-Fluorophenoxy)-pyridin-3-yl-methyl]-morpholine]
- Ki [1]: 51 nM
- Ki [2]: 2630 nM

SMILES: COc1cccc(F)c1OC(c1cccnc1)[C@H]1CNCCO1 (mixture of isomers) [Example 31, (2R,3R) and (R)-2-[(S)-(2-Fluoro-6-methoxy-phenoxy)-pyridin-3-yl-methyl]-morpholine]
- Ki [1]: 85 nM
- Ki [2]: 348 nM

SMILES: Fc1ccc(OC(C2CC2)[C@@H]2CNCCO2)c(F)c1 (mixture of isomers) [Example 99, (2S)-2-[cyclopropyl(2,4-difluorophenoxy)methyl]morpholine]
- Ki [1]: 880 nM
- Ki [2]: 1270 nM

SMILES: Fc1cccc(F)c1OC(Cc1ccccc1)[C@@H]1CNCCO1 (mixture of isomers) [Example 101, (2S)-2-[1-(2,6-difluorophenoxy)-2-phenylethyl]morpholine]
- Ki [1]: 66 nM
- Ki [2]: 912 nM

SMILES: CCCC(Oc1ccccc1OCC)[C@@H]1CNCCO1 (mixture of isomers) [Example 104, (2S)-2-[(1S)-1-(2-ethoxyphenoxy)butyl]morpholine]
- Ki [1]: 2390 nM
- Ki [2]: 9790 nM

SMILES: CCOc1ccccc1OC(CC(C)C)[C@@H]1CNCCO1 (mixture of isomers) [Example 105, (2S)-2-[(1S)-1-(2-ethoxyphenoxy)-3-methylbutyl]morpholine]
- Ki [1]: 1500 nM
- Ki [2]: 5590 nM

SMILES: CCOc1ccccc1OC(CC)[C@@H]1CNCCO1 (mixture of isomers) [Example 106]
- Ki [1]: 54 nM
- Ki [2]: ≥ 10000 nM

SMILES: Cc1coc(C(Oc2c(F)cccc2F)[C@@H]2CNCCO2)n1 (mixture of isomers) [Example 134, (2S)-2-[(2,6-difluorophenoxy)(4-methyl-1,3-oxazol-2-yl)methyl]morpholine]
- Ki [1]: 18 nM
- Ki [2]: ≥ 10000 nM

SMILES: CCOc1ncccc1OC(CC)[C@@H]1CNCCO1 (mixture of isomers) [Example 136, (2S)-2-{1-[(2-ethoxypyridin-3-yl)oxy]propyl}morpholine]
- Ki [1]: 102 nM
- Ki [2]: 6140 nM

SMILES: Fc1cccc(F)c1OC(c1cc2ccccc2o1)[C@@H]1CNCCO1 (mixture of isomers) [Example 143, (2S)-2-[1-benzofuran-2-yl(2,6-difluorophenoxy)methyl]morpholine]
- Ki [1]: 896 nM
- Ki [2]: 3320 nM

SMILES: Fc1cccc(F)c1OC(C1=CCCC1)[C@@H]1CNCCO1 (mixture of isomers) [Example 146, (2S)-2-[(S)-cyclopent-1-en-1-yl(2,6-difluorophenoxy)methyl]morpholine]
- Ki [1]: 20 nM
- Ki [2]: 3700 nM

SMILES: CCOc1ccccc1OC(c1ncco1)[C@@H]1CNCCO1 (mixture of isomers) [Example 195, (S)-2-[(2-ethoxyphenoxy)(1,3-oxazol-2-yl)methyl]morpholine]
- Ki [1]: 10 nM
- Ki [2]: 7060 nM

SMILES: Fc1cccc(F)c1OC(c1ncco1)[C@@H]1CNCCO1 (mixture of isomers) [Example 196, (S)-2-[(2,6-difluorophenoxy)(1,3-oxazol-2-yl)methyl]morpholine]
- Ki [1]: 9 nM
- Ki [2]: ≥ 10000 nM

SMILES: COc1cccc(F)c1OC(c1cccnc1)[C@H]1CNCCO1 (mixture of isomers) [Example 202, (2R)-2-[(2-fluoro-6-methoxyphenoxy)(pyridin-3-yl)methyl]morpholine]
- Ki [1]: 45 nM
- Ki [2]: 722 nM

SMILES: Cc1ccccc1-c1ccccc1OCC1CNCCO1 (racemic) [Example 88, 2-(2′-Methyl-biphenyl-2-yloxymethyl)-morpholine]
- Ki [1]: 633 nM
- Ki [2]: ≥ 10000 nM

SMILES: N#Cc1ccccc1O[C@@H](c1ccccn1)[C@@H]1CNCCO1 (single isomer, unassigned) [Example 22 (2S, 3R)]
- Ki [1]: 4820 nM
- Ki [2]: 6670 nM

SMILES: CCOc1ccccc1O[C@H](c1cccnc1)[C@@H]1CNCCO1 (single isomer, unassigned) [Example 25]
- Ki [1]: 124 nM
- Ki [2]: ≥ 10000 nM

SMILES: Cc1ccc(-c2cc(F)ccc2OCC2CNCCO2)cc1 (single isomer, unassigned) [Example 75]
- Ki [1]: 22 nM
- Ki [2]: 849 nM

SMILES: Fc1ccccc1OC(c1ccccn1)[C@@H]1CNCCO1 (single isomer, unassigned) [Example 120]
- Ki [1]: 10 nM
- Ki [2]: ≥ 10000 nM

SMILES: Fc1ccccc1OC(c1ccccn1)[C@@H]1CNCCO1 (single isomer, unassigned) [Example 121]
- Ki [1]: 470 nM
- Ki [2]: ≥ 10000 nM

SMILES: Fc1ccc(OC(c2cccnc2)C2CNCCO2)c(Cl)c1 (stereo in doubt) [Example 19, (S)-2-[(R)-(2-Chloro-4-fluoro-phenoxy)-pyridin-3-yl-methyl]-morpholine]
- Ki [1]: 1020 nM
- Ki [2]: 74 nM

SMILES: c1ccc(C(Oc2ccc3ccoc3c2)C2CNCCO2)cc1 (stereo in doubt) [Example 45, (R)-2-[(S)-(Benzofuran-6-yloxy)-phenyl-methyl]-morpholine]
- Ki [1]: 10 nM
- Ki [2]: 45 nM

SMILES: CCOc1ccccc1OC(c1cccc(F)c1)C1CNCCO1 (stereo in doubt) [Example 70, (R)-2-[(S)-(2-Ethoxy-phenoxy)-(3-fluoro-phenyl)-methyl]-morpholine]
- Ki [1]: 11 nM
- Ki [2]: 818 nM

SMILES: Fc1ccc(Oc2nccnc2OCC2CNCCO2)cc1 (stereo in doubt) [Example 78, (S)-2-[3-(4-Fluoro-phenoxy)-pyrazin-2-yloxymethyl]-morpholine]
- Ki [1]: 7970 nM
- Ki [2]: ≥ 10000 nM

SMILES: CCOc1ccccc1OC(c1cccc[n+]1[O-])[C@@H]1CNCCO1 (stereo in doubt) [Example 100, (2S)-2-[(S)-(2-ethoxyphenoxy)(1-oxidopyridin-2-yl)methyl]morpholine]
- Ki [1]: 152 nM
- Ki [2]: ≥ 10000 nM

SMILES: Fc1cccc(C2CC2)c1O[C@@H](c1ccccc1)C1CNCCO1 (stereo in doubt) [Example 184, (2S)-2-[(S)-(2-cyclopropyl-6-fluorophenoxy)(phenyl)methyl]morpholine]
- Ki [1]: 6 nM
- Ki [2]: 460 nM

SMILES: FC(F)(F)Oc1ccccc1O[C@@H](c1ccccc1)[C@@H]1CNCCO1 [Example 1, (S)-2-[(S)-Phenyl-(2-trifluoromethoxy-phenoxy)-methyl]-morpholine]
- Ki [1]: 9.9 nM
- Ki [2]: 3940 nM

SMILES: CCSc1ccccc1O[C@@H](c1ccccc1)[C@@H]1CNCCO1 [Example 2, (S)-2-[(S)-(2-Ethylsulfanyl-phenoxy)-phenyl-methyl]-morpholine]
- Ki [1]: 6.3 nM
- Ki [2]: 564 nM

SMILES: CC(C)Cc1ccccc1O[C@@H](c1ccccc1)[C@@H]1CNCCO1 [Example 3, (S)-2-[(S)-(2-isobutyl-phenoxy)-phenyl-methyl]-morpholine]
- Ki [1]: 33 nM
- Ki [2]: 1580 nM

SMILES: Brc1ccccc1O[C@@H](c1ccccc1)[C@@H]1CNCCO1 [Example 4, (S)-2-[(S)-(2-Bromo-phenoxy)-phenyl-methyl]-morpholine]
- Ki [1]: 1.6 nM
- Ki [2]: 708 nM

SMILES: C=Cc1ccccc1O[C@@H](c1ccccc1)[C@@H]1CNCCO1 [Example 5, (S)-2-[(S)-Phenyl-(2-vinyl-phenoxy)-methyl]-morpholine]
- Ki [1]: 13 nM
- Ki [2]: 1180 nM

SMILES: COCc1ccccc1O[C@@H](c1ccccc1)[C@@H]1CNCCO1 [Example 7, (S)-2-[(S)-(2-Methoxymethyl-phenoxy)-phenyl-methyl]-morpholine]
- Ki [1]: 17 nM
- Ki [2]: 6610 nM

SMILES: FC(F)(F)c1ccccc1O[C@@H](c1ccccc1)[C@@H]1CNCCO1 [Example 8, (S)-2-[(S)-Phenyl-(2-trifluoromethyl-phenoxy)-methyl]-morpholine]
- Ki [1]: 4.2 nM
- Ki [2]: 4710 nM

SMILES: c1ccc(Cc2ccccc2O[C@@H](c2ccccc2)[C@@H]2CNCCO2)cc1 [Example 9, (S)-2-[(S)-(2-Benzyl-phenoxy)-phenyl-methyl]-morpholine]
- Ki [1]: 15 nM
- Ki [2]: 967 nM

SMILES: c1ccc([C@H](Oc2ccccc2-c2ccncc2)[C@@H]2CNCCO2)cc1 [Example 10, (S)-2-[(S)-Phenyl-(2-pyridin-4-yl-phenoxy)-methyl]-morpholine]
- Ki [1]: 689 nM
- Ki [2]: ≥ 10000 nM

SMILES: c1ccc([C@H](Oc2ccccc2C2CC2)[C@@H]2CNCCO2)cc1 [Example 11, (S)-2-[(S)-(2-Cyclopropyl-phenoxy)-phenyl-methyl]-morpholine]
- Ki [1]: 1.8 nM
- Ki [2]: 452 nM

SMILES: c1ccc([C@H](Oc2cccc3ccccc23)[C@@H]2CNCCO2)cc1 [Example 12, (S)-2-[(S)-(Naphthalen-1-yloxy)-phenyl-methyl]-morpholine]
- Ki [1]: 6.7 nM
- Ki [2]: 6.4 nM

SMILES: c1ccc([C@H](Oc2ccccc2-c2cccnc2)[C@@H]2CNCCO2)cc1 [Example 13, (S)-2-[(S)-Phenyl-(2-pyridin-3-yl-phenoxy)-methyl]-morpholine]
- Ki [1]: 18 nM
- Ki [2]: 4100 nM

SMILES: N#Cc1ccccc1O[C@@H](c1ccccn1)[C@@H]1CNCCO1 [Example 22 (2S, 3S), (2S,3S)-2-(Morpholin-2-yl-pyridin-2-yl-methoxy)-benzonitrile]
- Ki [1]: 12 nM
